Legend:
human isoQC (S53-L382) [1] = target: T1, human isoQC (S53-L382) (Homo sapiens, UniProt Q9NXS2); assay: Assay 1 - isoQC inhibition, fluorescent enzymatic assay (single concentration); assay type: biochemical; conditions: isoQC inhibition at 250 nM test compound; read-out: isoQc Inh. Assay No. 1
T1 construct: enzymatically active region of human isoQC (S53-L382; see, e.g., Huang et al., 2011); GST-Enterokinase site (N, cleaved yes); made in house; host or cells: E. coli
Procedure: Initially, isoQC inhibitory activity was measured at a single concentration in a fluorescent-based assay (Assay 1 below). In order to establish the inhibitory activity more quantitatively, IC50 values were obtained using a mass spectrometry-based assay where pyroglutamylation by either isoQC or QC was measured (Assays 2 and 4, respectively, below). Alternatively, IC50 values for isoQC or QC were obtained using a fluorescence-based assay (Assays 3 and 5 respectively, below).
(§1) The Golgi luminal, enzymatically active region of human isoQC (S53-L382; see, e.g., Huang et al., 2011) was obtained by expression in E. coli of an N-terminally GST-Enterokinase and C-terminally 6×His tagged construct in the pET41(+) vector and subsequent purification using talon beads and GST beads, enterokinase digestion and further purification with a final formulation in 25 mM Tris pH 8.0/150 mM NaCl/1 mM TCEP. Absence of pyroglutamylating activity in an enzymatic dead variant that was cloned, expressed, and purified in parallel ruled out that the purification strategy isolates any endogenously present pyroglutamylating activity.
Pyroglutamylation was measured by conversion of glutamine-4-amino-7-methylcoumarine (H-Gln-AMC, Bachem) to pyroglutamyl-AMC, which is subsequently a specific substrate for pyroglutamylaminopeptidase (pGAPase, Qiagen), releasing free AMC which can be fluorescently detected. For a typical inhibition assay, 15 μL 20 μM h-Gln-AMC (diluted from a 40 mM stock dissolved in 25 mM HEPES using 50 mM Tris-HCl pH 8.0) was pipetted into a 96-well plate on ice. Next, 7.5 μL 1 μM test compound (diluted from a 10 mM stock dissolved in DMSO using 50 mM Tris-HCl) was added. Finally, 7.5 μL, 3 ng/μL recombinant isoQC enzyme was added and the reaction mixture was incubated for 1 hour at 37° C. A 5 minute incubation at 98° C. was then performed to denature the isoQC enzyme and stop the reaction.
To detect the amount of pyroglutamyl-AMC formed, a 96-well plate was prepared with 25 μL 0.125 U/mL pGAPase enzyme diluted in 50 mM Tris-HCl pH 8.0 containing 10 mM dithiothreitol (DTT). 25 μL of the pyroglutamylation reaction mixture was transferred into the plate containing the pGAPase solutions while on ice. Once done, the plate was moved over to a Spectramax ID3 fluorescent plate-reader to monitor and record the maximum fluorescence at 380 nm excitation/450 nm emission over a period of 20 minutes while keeping the temperature at 37° C.
DMSO concentrations during the assay never exceeded 1% and activities were compared to controls containing only the same amount of DMSO and no test compound. […] Test compounds were reported as active when <40% of background corrected signal was measured as compared to DMSO controls.

human isoQC (S53-L382) [2] = target: T1, human isoQC (S53-L382); assay: Assay 2 - isoQC potency, mass spectrometry-based enzymatic potency assay; assay type: biochemical; conditions: mass spectrometry read-out, 7.5 nM isoQC, 10 μM H-Gln-AMC; read-out: isoQc Pot. Assay No. 2
Procedure: as §1
(§2) EC50's of test compounds were determined by incubating 11-point two-fold dilutions of test compound in 20 μL volumes in the presence of 7.5 nM isoQC and 10 μM H-Gln-AMC using 50 mM Tris-HCl pH 8.0 as assay buffer for 2 hours at room temperature before stopping the reaction by the addition of 2 volumes of methanol. Both the substrate and the product of this reaction were read out using an Agilent RapidFire microfluidic solid phase sample extraction system coupled to an AB Sciex API 4000 triple quadrupole mass spectrometer, in negative ion mode, at m/z of 301.9 and 284.9 respectively. The actual readout was defined as P/(S+P), where P is the product signal area and S the substrate signal area. EC50's were calculated by four parameter sigmoidal model fitting.

recombinant human QC = target: T2, recombinant human QC (Homo sapiens, UniProt Q16769); assay: Assay 4 - QC potency, mass spectrometry-based enzymatic potency assay; assay type: biochemical; conditions: mass spectrometry read-out; read-out: QC Pot. Assay No. 4
T2 construct: His6 (N); purchased R&D Systems
T2 sequence (Q16769 29-361): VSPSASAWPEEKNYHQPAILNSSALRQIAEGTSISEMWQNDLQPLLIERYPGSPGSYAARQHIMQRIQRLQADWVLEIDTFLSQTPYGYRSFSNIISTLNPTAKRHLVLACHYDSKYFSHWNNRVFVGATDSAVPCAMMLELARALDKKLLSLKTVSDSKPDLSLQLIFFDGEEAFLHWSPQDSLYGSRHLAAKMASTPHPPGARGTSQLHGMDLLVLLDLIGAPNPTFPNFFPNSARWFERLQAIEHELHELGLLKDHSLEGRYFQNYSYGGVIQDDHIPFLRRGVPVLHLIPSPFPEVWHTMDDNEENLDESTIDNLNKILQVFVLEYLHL
Procedure: as §2
EC50's of test compounds were determined in the same way as described in Assay 2 above, except that N-terminally His6-tagged recombinant human QC (R&D Systems) was used instead of isoQC.

[3] = tested on: pyroglutamylated CD47 (pE-CD47) in KBM7 cells; assay: Assay 6 - cell-based potency assay (pE-CD47 CC2C6 staining vs total CD47); design: species or system human; conditions: Homo sapiens, KBM-7, 72 h, CC2C6 signal, read-out: Cell Pot. Assay No. 6
Procedure: Cells were spun for 4 minutes at 1500 rpm and washed once with PBS/0.5% BSA. Cells were spun down again and the supernatant was removed and incubated in 100 uL antibody staining solution (PBS/0.5% BSA/0.1 μg/mL DAPI (4′,6-diamidino-2-phenylindole, ThermoFisher Scientific) and a mixture of 1:500 FITC-conjugated anti-human CD47 clone 2D3, which recognizes total CD47 irrespective of its pyroglutamylation state, and 1:500 Alexa647-conjugated anti-human CD47 clone CC2C6, which specifically detects pyroglutamylated CD47) for 2 hours at 4° C. Next, the cells were spun down and washed twice with 2×150 μL PBS/0.5% BSA to remove unbound antibody. Cells were again spun down and taken up in 300 μL FACS buffer before analysis on a Celesta FACS machine (BD Biosciences).
KBM7 cells (Kotecki et al., 1999) were infected with lentivirus produced by transfecting pSCNC-LentiCRISPR-QPCTL or pSCNC-LentiCRISPR-CD47 into HEK-293T cells according to standard protocols. After 24 hours incubation, cells were selected with puromycin (Invivogen, 1 μg/mL) for 48 hours. Cells were stained for total CD47 and pE-CD47 and QPCTL k.o. cells were sorted out as negative for pE-CD47, and CD47 k.o. cells as negative for total CD47, using a FACSAria III and FACS Diva software (BD Biosciences).
In order to test compounds for their effect on pyroglutamylation in live cells, 25000 KBM7 cells per well were seeded in a 96-well U-bottom plate in 150 μl IMDM/10% FCS/1% Pen/Strep medium and a 10-point 2-fold dilution range of test compounds. After 72 hours incubation at 37° C., 5% CO2, cells were stained for total CD47 and pE-CD47 and analyzed on a BD Celesta using FACS Diva software (BD Biosciences). Cells gated for DAPI negativity were recorded and the median fluorescence intensity (MFI) of each sample was transformed to linearly scale between the MFI's of wildtype and CD47 knockout cells (in case of the 2D3 antibody) and the wildtype and QPCTL knockout cells (in case of the CC2C6 antibody). IC50's were calculated by 3 parameter logistic regression of the CC2C6 signal vs. compound concentration, where the top of the sigmoidal curve was fixed at 1, using R and the drc package (http://www.r-project.org, https://cran.r-project.org/web/packages/drc/index.html).

T1 sequence (Q9NXS2 53-382): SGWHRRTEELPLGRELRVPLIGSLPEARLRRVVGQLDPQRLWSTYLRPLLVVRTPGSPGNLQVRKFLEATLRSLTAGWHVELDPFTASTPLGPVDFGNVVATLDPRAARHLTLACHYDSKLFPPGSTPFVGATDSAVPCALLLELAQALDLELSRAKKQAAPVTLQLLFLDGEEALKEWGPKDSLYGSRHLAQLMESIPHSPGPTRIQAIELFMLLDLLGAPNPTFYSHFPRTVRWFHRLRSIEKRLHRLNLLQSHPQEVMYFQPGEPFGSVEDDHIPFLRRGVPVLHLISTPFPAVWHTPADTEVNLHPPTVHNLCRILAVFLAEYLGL

SMILES | inhibition at 0.25 µM (human isoQC (S53-L382) [1]) [%] | IC50 (human isoQC (S53-L382) [2]) [nM] | IC50 (recombinant human QC) [nM] | IC50 [3] [nM]
CCCOc1ccc(C2c3c(nn(CC(F)F)c3C)C(=O)N2c2ccc3[nH]cnc3c2)cc1 (stereo not drawn) [FRPPO-032] | ≤ 40 | 100 to 5000 | 100 to 5000 | 1000 to 5000
Cc1c2c(nn1C)C(=O)N(c1ccc3[nH]cnc3c1)C2c1cc(F)cc(F)c1F (stereo not drawn) [FRPPO-013] | > 40 | 25 to 100 | 25 to 100 | 1000 to 5000
CCCOc1ccc(C2c3c(nn(C)c3CC)C(=O)N2c2ccc3[nH]cnc3c2)cc1 (stereo not drawn) [FRPPO-007] | > 40 | 25 to 100 | 25 to 100 | < 1000
CCCOc1ccc(C2c3c(nn(CC4CC4)c3C)C(=O)N2c2ccc3[nH]cnc3c2)cc1 (stereo not drawn) [FRPPO-034] | > 40 | 100 to 5000 | 100 to 5000 | 1000 to 5000
CCCOc1ccc(C2c3c(nn(C(C)C)c3C)C(=O)N2c2ccc3[nH]cnc3c2)cc1 (stereo not drawn) [FRPPO-030] | > 40 | 100 to 5000 | 100 to 5000 | 1000 to 5000
CCCOc1ccc(C2c3c(nn(CC)c3C)C(=O)N2c2ccc3[nH]cnc3c2)cc1 (stereo not drawn) [FRPPO-029] | > 40 | 25 to 100 | 100 to 5000 | < 1000
CCCOc1ccc(C2c3c(nn(COC)c3C)C(=O)N2c2ccc3[nH]cnc3c2)cc1 (stereo not drawn) [FRPPO-031] | > 40 | 25 to 100 | 100 to 5000 | 1000 to 5000

More lines, now with the values ahead:

inhibition at 0.25 µM (human isoQC (S53-L382) [1]) [%] | IC50 (human isoQC (S53-L382) [2]) [nM] | IC50 (recombinant human QC) [nM] | IC50 [3] [nM] | SMILES
> 40 | 100 to 5000 | 100 to 5000 | 1000 to 5000 | CCCOc1ccc(C2c3c(nn(C4CCOCC4)c3C)C(=O)N2c2ccc3[nH]cnc3c2)cc1 (stereo not drawn) [FRPPO-035]
> 40 | 100 to 5000 | 100 to 5000 | 1000 to 5000 | CCCOc1ccc(C2c3c(nn(C4CCC4)c3C)C(=O)N2c2ccc3[nH]cnc3c2)cc1 (stereo not drawn) [FRPPO-033]
> 40 | 25 to 100 | 25 to 100 | ≥ 50000 | Cc1c2c(nn1C)C(=O)N(c1ccc3[nH]cnc3c1)C2c1ccc(N2CCCCC2=O)cc1 (stereo not drawn) [FRPPO-017]
> 40 | < 25 | < 25 | 1000 to 5000 | Cc1c2c(nn1C)C(=O)N(c1ccc3[nH]cnc3c1)C2c1ccc(N2CCS(=O)(=O)CC2)cc1 (stereo not drawn) [FRPPO-027]
> 40 | < 25 | 25 to 100 | 1000 to 5000 | Cc1c2c(nn1C)C(=O)N(c1ccc3[nH]cnc3c1)C2c1ccc2nsnc2c1 (stereo not drawn) [FRPPO-020]
> 40 | < 25 | 25 to 100 | 5000 to 50000 | Cc1c2c(nn1C)C(=O)N(c1ccc3[nH]cnc3c1)C2c1ccc(Oc2cnn(C)c2)cc1 (stereo not drawn) [FRPPO-025]
> 40 | < 25 | 25 to 100 | 5000 to 50000 | Cc1c2c(nn1C)C(=O)N(c1ccc3[nH]cnc3c1)C2c1ccc(N2CCCC2=O)cc1 (stereo not drawn) [FRPPO-016]
> 40 | < 25 | 25 to 100 | 1000 to 5000 | Cc1c2c(nn1C)C(=O)N(c1ccc3[nH]cnc3c1)C2c1ccc(-c2ccccn2)cc1 (stereo not drawn) [FRPPO-014]

Reference: patent publication US20230077723A1, “N-SUBSTITUTED-3,4-(FUSED 5-RING)-5-PHENYL-PYRROLIDINE-2-ONE COMPOUNDS AS INHIBITORS OF ISOQC AND/OR QC ENZYME” (Scenic Immunology B.V., priority 2019, published 2023)
